According to US11045455B2, “Azetidine derivative, preparation method therefor, and use thereof” (SICHUAN KELUN-BIOTECH BIOPHARMACEUTICAL CO., LTD., priority 2016, dated 2021):
pIC50: −log10 of the molar value. Counter-ions that a name gives are not always drawn. Like-named read-outs stand apart in the source and are kept apart here.

Legend:
hERG potassium channel = hERG potassium channel (Homo sapiens (Human), UniProt Q12809); assay: Predictor hERG Fluorescence Polarization Assay; assay type: binding; details: tested at 3, 10 and 30 μM
Sequence of hERG potassium channel (Q12809 whole entry): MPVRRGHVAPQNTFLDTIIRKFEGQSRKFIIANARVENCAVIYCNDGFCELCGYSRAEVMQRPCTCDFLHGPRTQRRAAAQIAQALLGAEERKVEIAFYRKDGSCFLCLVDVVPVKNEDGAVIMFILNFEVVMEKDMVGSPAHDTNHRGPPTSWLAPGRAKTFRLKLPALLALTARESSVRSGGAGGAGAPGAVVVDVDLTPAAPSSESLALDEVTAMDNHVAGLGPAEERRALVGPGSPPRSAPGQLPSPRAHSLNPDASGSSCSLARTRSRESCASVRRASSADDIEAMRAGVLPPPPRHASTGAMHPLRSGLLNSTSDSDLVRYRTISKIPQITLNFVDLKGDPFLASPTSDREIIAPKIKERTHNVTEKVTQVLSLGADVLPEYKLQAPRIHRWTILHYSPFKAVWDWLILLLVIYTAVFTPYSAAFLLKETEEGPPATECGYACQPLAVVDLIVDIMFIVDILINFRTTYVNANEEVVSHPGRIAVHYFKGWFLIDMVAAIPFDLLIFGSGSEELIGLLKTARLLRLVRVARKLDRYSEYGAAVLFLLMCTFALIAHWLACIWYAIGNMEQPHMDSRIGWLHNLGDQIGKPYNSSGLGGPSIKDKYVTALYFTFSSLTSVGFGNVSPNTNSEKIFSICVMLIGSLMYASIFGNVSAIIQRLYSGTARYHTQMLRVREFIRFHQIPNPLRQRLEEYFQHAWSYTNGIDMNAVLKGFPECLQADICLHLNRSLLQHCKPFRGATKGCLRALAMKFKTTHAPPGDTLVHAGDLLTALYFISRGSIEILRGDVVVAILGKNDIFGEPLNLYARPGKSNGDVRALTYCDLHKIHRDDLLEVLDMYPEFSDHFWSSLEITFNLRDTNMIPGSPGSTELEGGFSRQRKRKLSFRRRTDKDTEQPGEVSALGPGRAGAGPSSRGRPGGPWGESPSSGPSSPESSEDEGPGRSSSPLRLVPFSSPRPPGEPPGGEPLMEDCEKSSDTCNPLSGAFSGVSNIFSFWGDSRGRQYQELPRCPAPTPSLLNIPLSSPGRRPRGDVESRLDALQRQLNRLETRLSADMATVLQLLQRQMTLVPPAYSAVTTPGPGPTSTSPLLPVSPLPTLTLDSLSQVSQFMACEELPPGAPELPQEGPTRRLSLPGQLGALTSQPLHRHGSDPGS
Procedure: Experimental Example 2: Safety Test
The effect of test compounds on hERG potassium channel were determined using Predictor™ hERG Fluorescence Polarization Assay at concentrations of 3, 10, and 30 μM.

JAK2 = JAK2 (Homo sapiens (Human), UniProt O60674); assay: JAK2 enzymatic inhibition assay (ADP-Glo luminescence); assay type: biochemical
Procedure: (§3) Test Materials • JAK1, JAK2, JAK3 and TYK2 enzymes were purchased from Life Technologies; and substrate GFP-STAT1 was purchased from Life Technologies.
(§4) Test compounds, enzymes, the substrate and ATP were diluted to the desired concentrations with the assay buffer (40 mM Tris-HCl, pH 7.4, 20 mM MgCl2, 0.1% BSA). The former three were added into a multiple well plate, and incubated at room temperature after being mixed homogeneously. ATP was added to initiate the kinase reaction, and incubation at room temperature was performed. ADP-Glo was added, and incubation at room temperature was performed. The kinase detector reagent was then added, and incubation at room temperature was performed. The luminescence intensity of each test group was detected, and the half maximal inhibitory concentration (IC50) value was calculated.

JAK1 = JAK1 (Homo sapiens (Human), UniProt P23458); assay: JAK1 enzymatic inhibition assay (ADP-Glo luminescence); assay type: biochemical
Sequence of JAK1 (P23458 whole entry): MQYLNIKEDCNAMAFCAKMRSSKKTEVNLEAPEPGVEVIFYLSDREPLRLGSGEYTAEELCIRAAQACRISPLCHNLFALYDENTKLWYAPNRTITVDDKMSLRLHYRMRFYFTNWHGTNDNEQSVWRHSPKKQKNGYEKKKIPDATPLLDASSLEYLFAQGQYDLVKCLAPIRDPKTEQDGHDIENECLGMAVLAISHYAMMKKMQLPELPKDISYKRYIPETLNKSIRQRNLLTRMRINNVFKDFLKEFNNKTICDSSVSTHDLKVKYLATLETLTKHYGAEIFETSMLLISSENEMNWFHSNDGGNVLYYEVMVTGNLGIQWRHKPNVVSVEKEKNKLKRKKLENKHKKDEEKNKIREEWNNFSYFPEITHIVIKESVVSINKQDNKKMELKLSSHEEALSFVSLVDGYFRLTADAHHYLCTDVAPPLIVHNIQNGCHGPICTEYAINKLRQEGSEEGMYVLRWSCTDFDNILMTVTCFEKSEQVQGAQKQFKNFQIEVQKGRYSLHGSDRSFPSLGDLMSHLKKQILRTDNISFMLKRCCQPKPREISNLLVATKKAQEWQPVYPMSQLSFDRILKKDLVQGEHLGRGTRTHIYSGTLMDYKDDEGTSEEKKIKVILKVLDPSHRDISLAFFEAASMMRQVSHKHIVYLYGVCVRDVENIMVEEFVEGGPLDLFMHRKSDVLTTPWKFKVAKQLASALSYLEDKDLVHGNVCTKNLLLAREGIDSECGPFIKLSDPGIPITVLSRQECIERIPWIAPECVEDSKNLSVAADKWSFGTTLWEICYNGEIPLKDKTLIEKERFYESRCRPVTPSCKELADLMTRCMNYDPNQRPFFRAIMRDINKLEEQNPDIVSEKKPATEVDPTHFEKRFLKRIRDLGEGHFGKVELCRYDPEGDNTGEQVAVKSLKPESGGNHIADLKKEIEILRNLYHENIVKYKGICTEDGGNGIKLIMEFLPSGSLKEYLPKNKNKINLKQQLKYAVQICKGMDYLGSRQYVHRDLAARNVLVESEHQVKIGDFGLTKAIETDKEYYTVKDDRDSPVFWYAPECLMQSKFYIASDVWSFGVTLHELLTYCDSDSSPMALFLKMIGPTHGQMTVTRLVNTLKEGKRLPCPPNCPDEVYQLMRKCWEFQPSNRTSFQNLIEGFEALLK
Procedure: as §3, §4

TYK2 = TYK2 (Homo sapiens (Human), UniProt P29597); assay: TYK2 enzymatic inhibition assay (LanthaScreen TR-FRET); assay type: biochemical
Sequence of TYK2 (P29597 whole entry): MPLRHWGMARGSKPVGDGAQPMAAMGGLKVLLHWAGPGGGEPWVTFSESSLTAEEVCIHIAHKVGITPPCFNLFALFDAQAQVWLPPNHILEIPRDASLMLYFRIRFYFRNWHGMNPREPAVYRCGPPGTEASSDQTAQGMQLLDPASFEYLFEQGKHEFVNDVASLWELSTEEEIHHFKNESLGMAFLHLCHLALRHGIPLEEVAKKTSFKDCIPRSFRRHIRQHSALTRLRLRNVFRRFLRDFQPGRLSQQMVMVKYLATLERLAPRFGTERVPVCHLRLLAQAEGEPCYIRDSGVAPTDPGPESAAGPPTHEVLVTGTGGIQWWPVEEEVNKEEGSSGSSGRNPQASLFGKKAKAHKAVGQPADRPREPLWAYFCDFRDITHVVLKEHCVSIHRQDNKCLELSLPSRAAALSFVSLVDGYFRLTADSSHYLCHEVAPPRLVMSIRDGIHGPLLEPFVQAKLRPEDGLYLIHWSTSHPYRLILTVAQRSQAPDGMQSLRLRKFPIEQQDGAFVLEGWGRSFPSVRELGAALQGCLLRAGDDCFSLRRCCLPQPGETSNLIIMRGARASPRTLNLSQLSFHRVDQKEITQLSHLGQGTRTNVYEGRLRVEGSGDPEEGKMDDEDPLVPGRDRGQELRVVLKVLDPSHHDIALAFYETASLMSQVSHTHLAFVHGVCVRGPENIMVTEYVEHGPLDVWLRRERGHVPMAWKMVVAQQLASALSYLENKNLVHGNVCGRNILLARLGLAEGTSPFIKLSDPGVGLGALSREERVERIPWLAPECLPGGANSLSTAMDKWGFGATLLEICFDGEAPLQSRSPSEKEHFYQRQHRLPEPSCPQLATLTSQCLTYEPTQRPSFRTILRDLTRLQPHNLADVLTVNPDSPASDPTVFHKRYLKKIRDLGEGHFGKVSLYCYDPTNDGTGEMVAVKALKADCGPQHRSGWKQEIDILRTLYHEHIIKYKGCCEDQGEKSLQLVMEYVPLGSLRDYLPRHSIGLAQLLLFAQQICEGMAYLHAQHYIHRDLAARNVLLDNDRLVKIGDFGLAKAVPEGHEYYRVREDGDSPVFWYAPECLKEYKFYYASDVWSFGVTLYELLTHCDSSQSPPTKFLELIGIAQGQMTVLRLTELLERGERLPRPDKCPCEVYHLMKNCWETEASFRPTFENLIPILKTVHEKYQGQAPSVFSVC
Procedure: (§1) Experimental Example 1: JAK1, JAK2, JAK3 and TYK2 Enzymatic Inhibition Assay
As for the TYK2 enzyme, Tb-anti-pSTAT1 was added, and incubation at room temperature was performed.

JAK3 = JAK3 (Homo sapiens (Human), UniProt P52333); assay: JAK3 enzymatic inhibition assay (ADP-Glo luminescence); assay type: biochemical
Sequence of JAK3 (P52333 whole entry): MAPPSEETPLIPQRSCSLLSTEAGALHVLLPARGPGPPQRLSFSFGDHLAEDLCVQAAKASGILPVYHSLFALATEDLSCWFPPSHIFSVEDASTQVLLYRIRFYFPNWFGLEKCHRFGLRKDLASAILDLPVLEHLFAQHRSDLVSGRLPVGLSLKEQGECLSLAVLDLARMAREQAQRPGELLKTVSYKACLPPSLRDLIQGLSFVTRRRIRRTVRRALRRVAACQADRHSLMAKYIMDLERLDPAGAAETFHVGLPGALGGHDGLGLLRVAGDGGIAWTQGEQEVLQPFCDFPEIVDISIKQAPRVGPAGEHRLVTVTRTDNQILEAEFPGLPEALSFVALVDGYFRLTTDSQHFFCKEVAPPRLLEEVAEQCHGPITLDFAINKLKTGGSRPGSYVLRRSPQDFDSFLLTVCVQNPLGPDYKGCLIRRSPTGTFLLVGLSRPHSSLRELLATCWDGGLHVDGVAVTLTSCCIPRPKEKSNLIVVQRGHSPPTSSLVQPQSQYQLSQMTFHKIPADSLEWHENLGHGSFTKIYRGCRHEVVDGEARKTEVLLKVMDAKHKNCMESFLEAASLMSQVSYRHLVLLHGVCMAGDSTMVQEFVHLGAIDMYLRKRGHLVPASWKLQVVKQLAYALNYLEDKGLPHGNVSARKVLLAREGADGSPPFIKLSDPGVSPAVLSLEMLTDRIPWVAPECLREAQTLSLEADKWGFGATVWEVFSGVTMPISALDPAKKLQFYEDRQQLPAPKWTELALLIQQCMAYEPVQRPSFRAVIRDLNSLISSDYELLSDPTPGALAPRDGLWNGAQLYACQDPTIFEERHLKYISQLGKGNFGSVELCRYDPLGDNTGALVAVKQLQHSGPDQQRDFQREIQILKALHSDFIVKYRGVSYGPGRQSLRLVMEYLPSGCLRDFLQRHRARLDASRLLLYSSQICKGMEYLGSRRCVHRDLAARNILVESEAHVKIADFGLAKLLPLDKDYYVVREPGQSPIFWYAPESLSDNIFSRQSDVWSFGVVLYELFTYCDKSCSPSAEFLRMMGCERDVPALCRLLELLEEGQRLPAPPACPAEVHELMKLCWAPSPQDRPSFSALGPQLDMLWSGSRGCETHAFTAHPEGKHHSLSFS
Text: as §1

[1] = Pharmacokinetic study in rats, intravenous (IV) administration; assay type: in vivo; details: male, SD, rat, plasma, IV administration at 1 mg/kg, 0-24 h
Procedure: Experimental Example 3: Pharmacokinetic Studies
To study the pharmacokinetic characteristics of test compounds, the test compounds were administrated by intravenous (IV) and gavage (PO) routes to male SD rats. The dosage for IV administration was 1 mg/kg, and that for PO administration was 0.5-5 mg/kg. The vehicle is 10% DMSO: 10% solutol: 80% physiological saline, or 5% DMSO: 5% solutol: 90% physiological saline, or 10% DMSO: 60% PEG: 30% physiological saline. Blood was collected at various time points after administration. Plasma samples were analyzed by LC-MS/MS after protein precipitation process with acetonitrile.

CYP1A2 = CYP1A2 (Homo sapiens (Human), UniProt P05177); assay: CYP450 enzyme test, P450-Glo screening system, CYP1A2; assay type: in vitro ADME; details: read-out: IC50 (μM) CYP1A2
Text: (§2) CYP450 is the most important enzymatic system in drug metabolism. The enzymes involved in the metabolism interact with a drug, and mainly include CYP1A2, CYP2D6 and CYP3A4. In the CYP450 enzyme test, P450-Glo™ CYP1A2 screening system was employed to determine the inhibitory activity of compounds on CYP1A2 and CYP3A4. The Vivid® CYP2D6 Cyan screening kit was employed to determine the inhibitory activity of test compounds on CYP2D6.

CYP2D6 = CYP2D6 (Homo sapiens (Human), UniProt P10635); assay: CYP450 enzyme test, Vivid CYP2D6 Cyan screening kit; assay type: in vitro ADME
Sequence of CYP2D6 (P10635 whole entry): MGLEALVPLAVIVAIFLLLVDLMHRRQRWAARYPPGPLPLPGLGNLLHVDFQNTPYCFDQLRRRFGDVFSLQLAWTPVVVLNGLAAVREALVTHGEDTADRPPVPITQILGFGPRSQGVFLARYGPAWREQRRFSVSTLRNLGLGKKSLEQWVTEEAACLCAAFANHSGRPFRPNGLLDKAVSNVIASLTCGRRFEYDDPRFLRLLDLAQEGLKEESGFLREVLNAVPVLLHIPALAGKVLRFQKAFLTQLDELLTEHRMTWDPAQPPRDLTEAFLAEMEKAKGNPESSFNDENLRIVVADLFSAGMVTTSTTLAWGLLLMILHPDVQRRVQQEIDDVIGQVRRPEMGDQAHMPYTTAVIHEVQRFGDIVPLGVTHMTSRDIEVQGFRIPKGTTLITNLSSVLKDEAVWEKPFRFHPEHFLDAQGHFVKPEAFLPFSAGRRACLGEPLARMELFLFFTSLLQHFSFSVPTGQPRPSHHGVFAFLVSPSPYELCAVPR
Text: as §2

CYP3A4 = CYP3A4 (Homo sapiens (Human), UniProt P08684); assay: CYP450 enzyme test, P450-Glo screening system, CYP3A4; assay type: in vitro ADME
Text: as §2

| Structure (SMILES) | IC50 (JAK2) [nM] | IC50 (JAK1) [nM] | pIC50 (hERG potassium channel) | other results |
| --- | --- | --- | --- | --- |
| CC1(S(=O)(=O)N2CC(CC#N)(n3cc(-c4c(C#N)cnc5[nH]ccc45)cn3)C2)CC1 [Compound 1, 4-(1-(3-(cyanomethyl)-1-((1-methylcyclopropyl)sulfonyl)azetidin-3-yl)-1H-pyrazol-4-yl)-1H-pyrrolo[2,3-b]pyridine-5-carbonitrile] | 1.98 | 0.78 | < 4.52 |  |
| CS(=O)(=O)N1CC(CC#N)(n2cc(-c3c(C#N)cnc4[nH]ccc34)cn2)C1 [Compound 2, 4-(1-(3-(cyanomethyl)-1-(methylsulfonyl)azetidin-3-yl)-1H-pyrazol-4-yl)-1H-pyrrolo[2,3-b]pyridine-5-carbonitrile] | 0.42 | 0.17 | < 4.52 |  |
| CCS(=O)(=O)N1CC([C@H](C)C#N)(n2cc(-c3ncnc4[nH]ccc34)cn2)C1 [Compound 12-2, (S)-2-(3-(4-(7H-pyrrolo[2,3-d]pyrimidin-4-yl)-1H-pyrazol-1-yl)-1-(ethylsulfonyl)azetidin-3-yl)propanenitrile] | 1.81 |  | < 4.52 | IC50 (TYK2): ~30 nM; IC50 (JAK3): 10 to 30 nM |
| CN(C)S(=O)(=O)N1CC(CC#N)(n2cc(-c3ccnc4[nH]ccc34)cn2)C1 [Compound 14, 3-(4-(1H-pyrrolo[2,3-b]pyridin-4-yl)-1H-pyrazol-1-yl)-3-(cyanomethyl)-N,N-dimethylazetidine-1-sulfonamide] | 0.5 | 1.3 | < 4.52 |  |
| CCS(=O)(=O)N1CC(CC#N)(n2ccc(-c3c(C#N)cnc4[nH]ccc34)c2)C1 [Compound 17, 4-(1-(3-(cyanomethyl)-1-(ethylsulfonyl)azetidin-3-yl)-1H-pyrrol-3-yl)-1H-pyrrolo[2,3-b]pyridine-5-carbonitrile] | 0.93 | 1.13 | < 4.52 |  |
| N#CCC1(n2cc(-c3ccnc4[nH]ccc34)cn2)CN(S(=O)(=O)C2CC2)C1 [Compound 26, 2-(3-(4-(1H-pyrrolo[2,3-b]pyridin-4-yl)-1H-pyrazol-1-yl)-1-(cyclopropylsulfonyl)azetidin-3-yl)acetonitrile] | 0.37 | 0.46 | < 4.52 |  |
| CC1(S(=O)(=O)N2CC(CC#N)(n3cc(-c4ccnc5[nH]ccc45)cn3)C2)CC1 [Compound 31, 2-(3-(4-(1H-pyrrolo[2,3-b]pyridin-4-yl)-1H-pyrazol-1-yl)-1-((1-methylcyclopropyl)sulfonyl)azetidin-3-yl)acetonitrile] | 1.23 | 0.72 | < 4.52 | IC50 (JAK3): 23.6 nM; AUC(0-t) [1]: 540 ng·h/mL |
| CN(C)S(=O)(=O)N1CC(CC#N)(n2cc(-c3c(C#N)cnc4[nH]ccc34)cn2)C1 [Compound 34, 3-(4-(5-cyano-1H-pyrrolo[2,3-b]pyridin-4-yl)-1H-pyrazol-1-yl)-3-(cyanomethyl)-N,N-dimethylazetidine-1-sulfonamide] | 1.66 | 0.8 |  |  |
| N#CCC1(n2cc(-c3ccnc4[nH]ccc34)cn2)CN(S(=O)(=O)N2CCCC2)C1 [Compound 35, 2-(3-(4-(1H-pyrrolo[2,3-b]pyridin-4-yl)-1H-pyrazol-1-yl)-1-(pyrrolidin-1-ylsulfonyl)azetidin-3-yl)acetonitrile] | 1.4 | 1.46 | < 4.52 | IC50 (TYK2): > 30 nM; IC50 (JAK3): > 30 nM |
| CCCS(=O)(=O)N1CC(CC#N)(n2cc(-c3c(C#N)cnc4[nH]ccc34)cn2)C1 [Compound 40, 4-(1-(3-(cyanomethyl)-1-(propylsulfonyl)azetidin-3-yl)-1H-pyrazol-4-yl)-1H-pyrrolo[2,3-b]pyridine-5-carbonitrile] | 2.24 | 0.97 |  |  |
| N#CCC1(n2cc(-c3c(C#N)cnc4[nH]ccc34)cn2)CN(S(=O)(=O)CCC(F)(F)F)C1 [Compound 44, 4-(1-(3-(cyanomethyl)-1-((3,3,3-trifluoropropyl)sulfonyl)azetidin-3-yl)-1H-pyrazol-4-yl)-1H-pyrrolo[2,3-b]pyridine-5-carbonitrile] | 3.93 | 1.95 |  |  |
| CCS(=O)(=O)N1CC(C(C)C#N)(n2cc(-c3c(C#N)cnc4[nH]ccc34)cn2)C1 (centres unmarked) [Compound 45, 4-(1-(3-(1-cyanoethyl)-1-(ethylsulfonyl)azetidin-3-yl)-1H-pyrazol-4-yl)-1H-pyrrolo[2,3-b]pyridine-5-carbonitrile] | 3.22 | 1.66 |  |  |
| CCS(=O)(=O)N1CC([C@@H](C)C#N)(n2cc(-c3c(C#N)cnc4[nH]ccc34)cn2)C1 [Compound 45-1, (R)-4-(1-(3-(1-cyanoethyl)-1-(ethylsulfonyl)azetidin-3-yl)-1H-pyrazol-4-yl)-1H-pyrrolo[2,3-b]pyridine-5-carbonitrile] | 1.17 | 1.65 | < 4.52 | IC50 (TYK2): ~30 nM; IC50 (JAK3): 10 to 30 nM |
| CCS(=O)(=O)N1CC([C@H](C)C#N)(n2cc(-c3c(C#N)cnc4[nH]ccc34)cn2)C1 [Compound 45-2, (S)-4-(1-(3-(1-cyanoethyl)-1-(ethylsulfonyl)azetidin-3-yl)-1H-pyrazol-4-yl)-1H-pyrrolo[2,3-b]pyridine-5-carbonitrile] | 1.11 | 1.85 | < 4.52 | IC50 (TYK2): ~30 nM; IC50 (JAK3): 10 to 30 nM |
| CCS(=O)(=O)N1CC(CC#N)(n2cc(-c3c(Cl)cnc4[nH]ccc34)cn2)C1 [Compound 50-HCl, 2-(3-(4-(5-chloro-1H-pyrrolo[2,3-b]pyridin-4-yl)-1H-pyrazol-1-yl)-1-(ethylsulfonyl)azetidin-3-yl)acetonitrile Hydrochloride Salt] |  |  |  | IC50 (JAK2; Hydrochloride Salt): 0.62 nM |
| CCS(=O)(=O)N1CC(CC#N)(n2cc(-c3c(F)cnc4[nH]ccc34)cn2)C1 [Compound 52-HCl, 2-(1-(ethylsulfonyl)-3-(4-(5-fluoro-1H-pyrrolo[2,3-b]pyridin-4-yl)-1H-pyrazol-1-yl)azetidin-3-yl)acetonitrile Hydrochloride Salt] |  |  |  | IC50 (JAK2; Hydrochloride Salt): 0.35 nM |

Continued, in another order:

| IC50 (JAK2) [nM] | IC50 (JAK1) [nM] | Structure (SMILES) | pIC50 (hERG potassium channel) | other results |
| --- | --- | --- | --- | --- |
| 1.44 | 2.89 | CCS(=O)(=O)N1CC(CC#N)(n2cc(-c3ccnc4[nH]ccc34)c(C)n2)C1 [Compound 13, 2-(1-(ethylsulfonyl)-3-(3-methyl-4-(1H-pyrrolo[2,3-b]pyridin-4-yl)-1H-pyrazol-1-yl)azetidin-3-yl)acetonitrile] | < 4.52 | IC50 (TYK2): ~30 nM; IC50 (JAK3): > 30 nM |
| 0.89 | 2.41 | CCCS(=O)(=O)N1CC(CC#N)(n2cc(-c3ccnc4[nH]ccc34)cn2)C1 [Compound 23, 2-(3-(4-(1H-pyrrolo[2,3-b]pyridin-4-yl)-1H-pyrazol-1-yl)-1-(propylsulfonyl)azetidin-3-yl)acetonitrile] | < 4.52 |  |
| 1.4 | 5.66 | CCS(=O)(=O)N1CC(CC#N)(n2cc(-c3ccnc4[nH]ccc34)c(Cl)n2)C1 [Compound 48, 2-(3-(3-chloro-4-(1H-pyrrolo[2,3-b]pyridin-4-yl)-1H-pyrazol-1-yl)-1-(ethylsulfonyl)azetidin-3-yl)acetonitrile] | < 4.52 | IC50 (CYP1A2): > 10 µM; IC50 (CYP2D6): > 10 µM; IC50 (CYP3A4): > 10 µM |
| 1.21 |  | CCS(=O)(=O)N1CC(CC#N)(n2cc(-c3ncnc4[nH]ccc34)c(C)n2)C1 [Compound 49, 2-(1-(ethylsulfonyl)-3-(3-methyl-4-(7H-pyrrolo[2,3-d]pyrimidin-4-yl)-1H-pyrazol-1-yl)azetidin-3-yl)acetonitrile] | < 4.52 | IC50 (CYP1A2): > 10 µM; IC50 (CYP2D6): > 10 µM; IC50 (CYP3A4): > 10 µM |
| 0.67 |  | CCS(=O)(=O)N1CC(CC#N)(n2cc(-c3c(Cl)cnc4[nH]ccc34)cn2)C1 [Compound 50, 2-(3-(4-(5-chloro-1H-pyrrolo[2,3-b]pyridin-4-yl)-1H-pyrazol-1-yl)-1-(ethylsulfonyl)azetidin-3-yl)acetonitrile] | < 4.52 | IC50 (CYP1A2): > 10 µM; IC50 (CYP2D6): > 10 µM; IC50 (CYP3A4): > 10 µM |
| 0.4 |  | CCS(=O)(=O)N1CC(CC#N)(n2cc(-c3c(F)cnc4[nH]ccc34)cn2)C1 [Compound 52, 2-(1-(ethylsulfonyl)-3-(4-(5-fluoro-1H-pyrrolo[2,3-b]pyridin-4-yl)-1H-pyrazol-1-yl)azetidin-3-yl)acetonitrile] | < 4.52 | IC50 (CYP1A2): > 10 µM; IC50 (CYP2D6): > 10 µM; IC50 (CYP3A4): > 10 µM |
| 1.76 | 3.52 | CCS(=O)(=O)N1CC(CC#N)(n2cc(C)c(-c3ncnc4[nH]ccc34)c2)C1 [Compound 56, 2-(1-(ethylsulfonyl)-3-(3-methyl-4-(7H-pyrrolo[2,3-d]pyrimidin-4-yl)-1H-pyrrol-1-yl)azetidin-3-yl)acetonitrile] |  |  |
